Reference: patent US9364465B2, “Thiazolidinediones of omega-3 polyunsaturated acids as new insulin sensitizers for treating type2 diabetes” (Jiva Pharma, Inc., priority 2013, dated 2016)
Where two headings read alike, the source gives them in different places.

Target: T1, PPARγ (Homo sapiens, UniProt P37231)
T1 construct: expressed in transfected cells
T1 sequence (P37231 238-503 limits assumed): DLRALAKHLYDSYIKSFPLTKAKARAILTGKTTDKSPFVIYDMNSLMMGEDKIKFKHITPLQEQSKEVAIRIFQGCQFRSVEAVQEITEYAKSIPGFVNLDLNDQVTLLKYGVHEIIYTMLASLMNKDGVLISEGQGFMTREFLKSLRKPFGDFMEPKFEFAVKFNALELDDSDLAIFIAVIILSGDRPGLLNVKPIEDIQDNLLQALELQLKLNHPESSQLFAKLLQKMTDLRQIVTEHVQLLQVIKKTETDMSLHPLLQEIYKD
Assay: cell-based chimeric receptor transcription assay (PPAR ligand binding domain fused to GAL4 DNA binding domain, GAL4-regulated luciferase reporter)
Settings: for RE: RE Conc. 16 μM
Experimental: To determine if these compounds can activate PPARγ or the members of the PPAR family of nuclear receptors (PPARα and PPARδ), the ability of these compounds to activate PPAR receptors in a cell-based chimeric receptor transcription assay were tested. This is a standard nuclear receptor ligand activity assay that utilizes the ligand binding domain of the PPAR receptor fused to a heterologous GAL4 DNA binding domain. The transcriptional read-out is from a GAL4-regulated luciferase reporter. In this assay, compounds that activate the receptor cause an increase in luciferase activity measured in a luminometer. The data are shown in Table 1 below (average luciferase values from transcription assay).

[1] = calculated EC50, PPARγ agonist assay, Table 2, read-out: EC50
[2] = 1.02 μM conc., * above background
[3] = 2.6 μM conc., * above background
[4] = 6.4 μM conc., * above background
[5] = 16 μM conc., * above background
[6] = 40 μM conc., * above background
[7] = read-out: activation of PPARγ, potency (EC50)

SMILES	EC50 [1]	average luciferase values from transcription assay (0.16 μM conc.)	average luciferase values from transcription assay (0.41 μM conc.)	average luciferase values from transcription assay [2]	average luciferase values from transcription assay [3]	average luciferase values from transcription assay [4]	average luciferase values from transcription assay [5]	average luciferase values from transcription assay [6]	RE	EC50 [7]
CC/C=C\C/C=C\C/C=C\C/C=C\C/C=C\CCCC(=O)OCC [EPA Et Ester, eicosapentaenoic acid ethyl ester, reference compound]	> 100 µM									
CC/C=C\C/C=C\C/C=C\C/C=C\C/C=C\CCCCC1SC(=O)NC1=O (centres unmarked) [EPA-TZ, 5-((5Z,8Z,11Z,14Z,17Z)-eicosa-5,8,11,14,17-pentaenyl)thiazolidine-2,4-dione]		128	123	164*	297*	705*	1416*	48^	1316	12 µM
CC/C=C\C/C=C\C/C=C\C/C=C\C/C=C\C/C=C\CCCC1SC(=O)NC1=O (centres unmarked) [DHA-TZ, 5-((4Z,7Z,10Z,13Z,16Z,19Z)-docosa-4,7,10,13,16,19-hexaenyl)thiazolidine-2,4-dione]	9.7 µM	106	145	167*	207*	623*	1454*	1868*	1354	10 µM
